The values below come from ChEMBL document CHEMBL2176907, “Identification of multiple 5-HT₄ partial agonist clinical candidates for the treatment of Alzheimer's disease” (J Med Chem, 2012).

One data set has as its target CYP2D6 (Homo sapiens, UniProt P10635). The data set can be described thus: Inhibition of CYP2D6 in human liver microsomes using dextromethorphan as substrate at 3 uM. It is filed as ADME, Microsome. As to conditions: probe dextromethorphan. On the technique in general: Microsomes from liver hold many membrane-bound enzymes, among them those of drug oxidation.
Data set [1] addresses T1, 5-hydroxytryptamine receptor 4 (Homo sapiens, UniProt Q13639). Put plainly: Agonist activity at human 5HT4D receptor expressed in HEK293 cells assessed as cAMP production after 30 mins by HTRF assay relative to 5HT. It is filed as functional, cell-based. In general terms: Changes in cAMP serve as a functional read-out for many G protein-coupled receptors.
The target in data set [2] is T1, 5-hydroxytryptamine receptor 4. The data set can be described thus: Agonist activity at human 5HT4D receptor expressed in HEK293 cells assessed as cAMP production after 30 mins by HTRF assay. It is filed as functional, cell-based.
Data set [3] has the same target. The data set can be described thus: biochemical.
Description: Displacement of [3H]GR113808 from human 5HT4D receptor expressed in HEK293 cells after 30 mins by liquid scintillation counting
Data set [4] in a line: Apparent permeability from apical to basal side of RRCK cells at 2 uM after 2 hrs by transwell assay. It is filed as ADME, cell-based, Canis lupus familiaris, MDCKII-LE. As to conditions: dog, MDCK.
Data set [5] is described as follows: Intrinsic clearance in human liver microsomes. It is filed as ADME, Microsome. As to conditions: read-out: CLH.
The test system of another data set is MDR1. Put plainly: in vitro. Particulars: dog, MDCK-MDR1.
Data set [6] has as its target 5-hydroxytryptamine receptor 4 (Rattus norvegicus) (UniProt Q62758). Put plainly: Agonist activity at 5HT4 receptor in rat oesophagus assessed as reversal of carbamylcholine-induced contraction at 10 uM incubated at 7 mins post carbamylcholine-challenge measured after 30 mins relative to 5HT. It is filed as functional.
Data set [7] is described as follows: Intrinsic clearance in dog liver microsomes. It is filed as ADME, Canis lupus familiaris, Microsome. As to conditions: read-out: CLH.
Data set [8] in a line: Oral bioavailability in dog. It is filed as ADME, organism-based, Canis lupus familiaris. Particulars: in vivo.
The nature of data set [9]: Intrinsic clearance in rat liver microsomes. It is filed as ADME, Microsome. Particulars: read-out: CLH.
Data set [10] can be described thus: Oral bioavailability in rat. It is filed as ADME, organism-based. As to conditions: in vivo.
Data set [11] is described as follows: Clearance in iv dosed dog. It is filed as ADME, organism-based, Canis lupus familiaris. As to conditions: in vivo.
The nature of data set [12]: Clearance in iv dosed rat. It is filed as ADME, organism-based. Particulars: in vivo.
The subject of data set [13] is Canis familiaris. The data set can be described thus: Gastrointestinal toxicity in beagle dog assessed as decrease in food intake administered as repeated dose for 7 days measured up to 1 month. It is filed as organism-based, Canis lupus familiaris. Particulars: in vivo, 168 h.
In data set [14] the test system is Rattus norvegicus. Put plainly: Gastrointestinal toxicity in Sprague-Dawley rat assessed as decrease in food intake administered as repeated dose for 7 days measured up to 1 month. It is filed as organism-based. Particulars: in vivo, 168 h.
In data set [15] the test system is Rattus norvegicus. Put plainly: Gastrointestinal toxicity in female Sprague-Dawley rat assessed as mucosal injury at 30 mg/kg administered as repeated dose for 7 days measured up to 1 month. It is filed as organism-based. Details: dose 30 mg/kg. As to conditions: in vivo, 168 h.
The subject of data set [16] is Rattus norvegicus. The data set can be described thus: Gastrointestinal toxicity in male Sprague-Dawley rat assessed as mucosal injury at 100 mg/kg administered as repeated dose for 7 days measured up to 1 month. It is filed as organism-based. Details: dose 100 mg/kg. Particulars: in vivo, 168 h.
Data set [17] relates to Rattus norvegicus. Put plainly: Gastrointestinal toxicity in female Sprague-Dawley rat assessed as reduction in body weight at 30 mg/kg administered as repeated dose for 7 days measured up to 1 month. It is filed as organism-based. Details: dose 30 mg/kg. As to conditions: in vivo, 168 h.
The subject of data set [18] is Rattus norvegicus. Put plainly: Gastrointestinal toxicity in male Sprague-Dawley rat assessed as reduction in body weight at 100 mg/kg administered as repeated dose for 7 days measured up to 1 month. It is filed as organism-based. Details: dose 100 mg/kg. As to conditions: in vivo, 168 h.
The test system of data set [19] is Canis familiaris. Put plainly: Gastrointestinal toxicity in beagle dog assessed as emesis at 20 mg/kg administered as repeated dose for 7 days measured up to 1 month. It is filed as organism-based, Canis lupus familiaris. Details: dose 20 mg/kg. Particulars: in vivo, 168 h.
Data set [20] relates to Canis familiaris. The data set can be described thus: Cardiotoxicity in beagle dog assessed as increase in systolic blood pressure at 0.05 mg/kg administered as repeated dose for 7 days measured up to 1 month. It is filed as toxicity, organism-based, Canis lupus familiaris, Artery. Details: dose 0.05 mg/kg. Particulars: in vivo, 168 h.
Data set [21] relates to Canis familiaris. The data set can be described thus: Neurotoxicity in beagle dog assessed as convulsions at 30 mg/kg administered as repeated dose for 7 days measured up to 1 month. It is filed as toxicity, organism-based, Canis lupus familiaris. Details: dose 30 mg/kg. Particulars: in vivo, 168 h.
Data set [22] relates to Rattus norvegicus. The data set can be described thus: Receptor occupancy of 5HT4 receptor in Sprague-Dawley rat brain at 5 mg/kg, sc up to 4 hrs. It is filed as functional. Particulars: route subcutaneous.
In data set [23] the test system is Rattus norvegicus. Put plainly: Procognitive activity in Sprague-Dawley rat assessed as increase in acetylcholine level in prefrontal cortex at 5 mg/kg, sc after 3 hrs by brain microdialysis relative to control. It is filed as functional, organism-based. Details: dose 5 mg/kg.
Data set [24] has as its system Rattus norvegicus. Put plainly: Displacement of [3H]SB207145 from 5HT4 receptor in sc dosed Sprague-Dawley rat striatal membrane incubated for 45 mins prior to [3H]SB207145-adminsitration measured after 15 mins. It is filed as functional, organism-based. As to conditions: Striatum.
Data set [25] concerns Nucleic Acid. Put plainly: Ratio of drug uptake in CSF to free drug concentration in plasma in sc dosed Sprague-Dawley rat. It is filed as ADME, organism-based. As to conditions: in vivo.
Data set [26] has as its system Nucleic Acid. Put plainly: Ratio of drug uptake in CSF to free drug concentration in brain in sc dosed Sprague-Dawley rat. It is filed as ADME, organism-based. As to conditions: in vivo.
Data set [27] is described as follows: Ratio of free drug concentration in brain to free drug concentration in plasma in sc dosed Sprague-Dawley rat. As to conditions: read-out: K(p,uu,brain). It is filed as ADME, organism-based.
Data set [28] in a line: AUC (0 to 4 hrs) in sc dosed Sprague-Dawley rat CSF by LC-MS/MS analysis. It is filed as ADME, organism-based. Details: time < 4 hr, route subcutaneous.
A further data set relates to Plasma. Put plainly: Free AUC (0 to 4 hrs) in sc dosed Sprague-Dawley rat plasma by LC-MS/MS analysis. It is filed as ADME, organism-based. Particulars: in vivo.
The next data set concerns Brain. The data set can be described thus: Free AUC (0 to 4 hrs) in sc dosed Sprague-Dawley rat brain by LC-MS/MS analysis. It is filed as ADME, organism-based. As to conditions: in vivo.
Data set [29] deals with T2, 5-hydroxytryptamine receptor 4 (Rattus norvegicus, UniProt Q62758).
T2 sequence (Q62758 whole entry): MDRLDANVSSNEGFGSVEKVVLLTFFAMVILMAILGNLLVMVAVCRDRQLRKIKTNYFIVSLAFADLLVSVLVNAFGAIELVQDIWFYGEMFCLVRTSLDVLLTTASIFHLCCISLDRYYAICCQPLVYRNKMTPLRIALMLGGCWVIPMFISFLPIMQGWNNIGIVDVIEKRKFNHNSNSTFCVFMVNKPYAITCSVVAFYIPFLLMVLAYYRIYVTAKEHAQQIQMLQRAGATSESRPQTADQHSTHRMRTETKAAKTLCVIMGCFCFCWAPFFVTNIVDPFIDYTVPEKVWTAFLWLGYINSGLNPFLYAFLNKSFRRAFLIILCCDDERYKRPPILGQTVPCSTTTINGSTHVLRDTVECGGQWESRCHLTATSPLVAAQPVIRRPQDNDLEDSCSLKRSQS
Description: Agonist activity at rat 5HT4E receptor expressed in HEK293 cells assessed as increase in cAMP production after 30 mins by HTRF assay
Data set [30] has as its target T2, 5-hydroxytryptamine receptor 4. The source holds these as a separate data set.
Description: Agonist activity at rat 5HT4S receptor expressed in HEK293 cells assessed as increase in cAMP production after 30 mins by HTRF assay
Data set [31] shares this target. The source holds these as a separate data set.
Description: Agonist activity at rat 5HT4L receptor expressed in HEK293 cells assessed as increase in cAMP production after 30 mins by HTRF assay
Data set [32] has as its target T1, 5-hydroxytryptamine receptor 4.
Description: Agonist activity at human 5HT4E receptor expressed in HEK293 cells assessed as increase in cAMP production after 30 mins by HTRF assay
For data set [33] the target is unchanged. The source holds these as a separate data set.
Description: Agonist activity at human 5HT4B receptor expressed in HEK293 cells assessed as increase in cAMP production after 30 mins by HTRF assay
Data set [34] has the same target. This is another data set of the same source.
Description: Agonist activity at human 5HT4A receptor expressed in HEK293 cells assessed as increase in cAMP production after 30 mins by HTRF assay
In data set [35] the target is T2, 5-hydroxytryptamine receptor 4. The source holds these as a separate data set.
Description: Displacement of [3H]GR113808 from 5HT4 receptor in rat striatal membrane after 30 mins by liquid scintillation counting
Data set [36] concerns the target T1, 5-hydroxytryptamine receptor 4. Put plainly: biochemical. The source holds these as a separate data set.
Description: Displacement of [3H]GR113808 from human 5HT4E receptor expressed in CHO cells after 30 mins by liquid scintillation counting
The target is the same in data set [37]. The data set can be described thus: biochemical. The source holds these as a separate data set.
Description: Displacement of [3H]GR113808 from human 5HT4B receptor expressed in HEK293 cells after 30 mins by liquid scintillation counting
The target is the same in data set [38]. Put plainly: biochemical. This is another data set of the same source.
Description: Displacement of [3H]GR113808 from human 5HT4A receptor expressed in HEK293 cells after 30 mins by liquid scintillation counting

The source made the active and inactive calls. The calls are words filed in the database; no cut-off is given here.

T1 sequence (Q13639 whole entry): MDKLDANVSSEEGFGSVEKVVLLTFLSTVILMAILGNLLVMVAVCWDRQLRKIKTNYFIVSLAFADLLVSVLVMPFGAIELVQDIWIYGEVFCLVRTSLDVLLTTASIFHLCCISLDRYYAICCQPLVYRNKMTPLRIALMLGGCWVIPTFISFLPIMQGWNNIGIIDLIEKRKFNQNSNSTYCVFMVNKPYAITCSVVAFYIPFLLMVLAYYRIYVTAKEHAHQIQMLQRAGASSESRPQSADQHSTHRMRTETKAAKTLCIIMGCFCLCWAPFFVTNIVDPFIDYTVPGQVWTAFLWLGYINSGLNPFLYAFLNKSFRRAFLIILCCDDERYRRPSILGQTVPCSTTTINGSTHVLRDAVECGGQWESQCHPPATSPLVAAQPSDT
CYP2D6, sequence (P10635 whole entry): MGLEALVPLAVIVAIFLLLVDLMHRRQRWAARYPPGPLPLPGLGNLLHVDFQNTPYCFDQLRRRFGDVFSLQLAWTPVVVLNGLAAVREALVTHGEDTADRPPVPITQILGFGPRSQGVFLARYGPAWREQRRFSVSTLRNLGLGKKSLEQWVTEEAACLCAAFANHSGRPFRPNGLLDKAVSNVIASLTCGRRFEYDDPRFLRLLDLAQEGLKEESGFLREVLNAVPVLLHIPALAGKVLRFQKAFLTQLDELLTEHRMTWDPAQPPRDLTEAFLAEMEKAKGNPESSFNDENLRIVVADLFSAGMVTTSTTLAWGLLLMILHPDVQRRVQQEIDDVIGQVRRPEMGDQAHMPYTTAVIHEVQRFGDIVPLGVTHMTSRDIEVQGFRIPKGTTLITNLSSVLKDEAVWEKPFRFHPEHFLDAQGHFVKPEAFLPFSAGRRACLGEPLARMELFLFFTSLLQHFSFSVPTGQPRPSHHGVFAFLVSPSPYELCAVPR
5-hydroxytryptamine receptor 4 (Rattus norvegicus), sequence (Q62758 whole entry): as the sequence (Q62758 whole entry) above
Description for MDR1: Efflux ratio of permeability from basal to apical to apical to basal side of MDCK cells expressing MDR1 at 2 uM after 5 hrs by transwell assay

`CCCCN1CCC(COc2noc3cccc(OCC(C)(C)C)c23)CC1`: the inhibition (commonly the relative decrease from the control value, in per cent) at 3 µM at CYP2D6 worked out at 93%. Also, the Emax – broadly, the greatest response seen or fitted, relative to the assay's reference – in data set [1] was found to be 95%. The concentration for a half-maximal effect (EC50) (in general, the concentration needed to bring the measured effect to its halfway point) in data set [2] is 6.3 nM. Further, the Ki (usually the dissociation constant of the complex between target and ligand, obtained from inhibition or displacement) in data set [3] stood at 5.2 nM.

Take `CC(C)(O)COc1cccc2onc(OCC3CCN(CC4(O)CCOCC4)CC3)c12`: the apparent permeability from apical to basolateral (Papp A→B) (commonly how fast a substance crosses the layer from the apical side) at 2 h, 2 µM in data set [4] came to 35 ×10⁻⁶ cm/s. The inhibition at 3 µM against CYP2D6 worked out at 21%. For the same compound, the CLint scaled in data set [5] came out at 38 mL/min/kg. In addition, the maximal response (Emax) in [1] came to 50%. Also, the 50% effective concentration (EC50) in data set [2] amounted to 1.7 nM. In addition, the efflux ratio (usually a quotient of directional permeabilities that is used to spot active efflux) at 5 h, 2 µM in the data set with MDR1 worked out at 1.6. The affinity in [3], expressed as Ki, was 3.6 nM.

Regarding `COCCCN1CCC(NC(=O)c2cc(Cl)c(N)c3c2OCC3)CC1`, the result in data set [6] was Active.

As to `CC1(C)C(=O)N(C(=O)NCC2CCN(CC3(O)CCOCC3)CC2)c2cc(F)ccc21` [PF-03382792], the CLint scaled in data set [7] is 35.4 mL/min/kg; in [9], 42.7 mL/min/kg; in data set [5], 25.4 mL/min/kg. Besides, the bioavailability (commonly the share of a dose that reaches the circulation, judged against a reference dose that is usually intravenous) in data set [8] came to 51%; in data set [10], 100%. The clearance – broadly, the rate of elimination divided by the concentration – in data set [11] was 12.4 mL/min/kg; in data set [12] it was 104 mL/min/kg. Besides, the Activity entry in the data set on Canis familiaris [13], in the data set on Rattus norvegicus [14], in the data set with Rattus norvegicus [15], in the data set on Rattus norvegicus [16], in the data set with Rattus norvegicus [17] and with Rattus norvegicus [18] was “Toxic” each time. For the same compound, the Activity result in the data set with Canis familiaris [19] is “Toxic”; in the data set on Canis familiaris [20], “Toxic”; in the data set on Canis familiaris [21] it was “Toxic”; in the data set on Rattus norvegicus [24], “Dose-dependent effect”. This compound also gave an Occ with Rattus norvegicus [22] greater than 90%. For the same compound, the outcome in the data set with Rattus norvegicus [23] was Active. Also, the values for the Ratio in the data set on Nucleic Acid [25] and with Nucleic Acid [26] were 0.8 and 2.1, respectively. Moreover, in data set [27], the Kp uu came out at 1.8. Also, the AUC(0-t) (in general, the area under the concentration-time curve up to a stated or last time point) at 4 h in data set [28] worked out at 1.38 µM·h. The figures for the fAUC in the data set with Plasma and in the data set with Brain were 1.669 µM·h and 2.922 µM·h, respectively. Besides, the Papp A→B at 2 h, 2 µM in [4] is greater than 27 ×10⁻⁶ cm/s. The Emax in data set [1] was 35%. For the same compound, the EC50 in [2] was found to be 0.9 nM; in data set [29], 2.15 nM; in data set [30] it was 1.15 nM; in data set [31], 1.52 nM; in [32], 1.2 nM; in data set [33] it was 1.3 nM. Besides, in [34], the EC50 came out at 0.8 nM. The inhibition constant (Ki) worked out at 3.9 nM in data set [35]; 6.3 nM in [36]; 6.8 nM in [37]; 4.6 nM in [38]; 2.7 nM in [3]. Also, in the data set with MDR1, the efflux ratio at 5 h, 2 µM was found to be 1.37.
